pIC50: −log10 of the molar value. Read-outs that look alike come from different tables or passages of the source.
Assays:
Format in all cases: biochemical
MCH-3 = target: T1, MCH-3 (Homo sapiens, UniProt P55210); test: Fluorescence enzyme assay, IC50 determination, Mch3
T1 sequence (P55210 24-198 limits assumed): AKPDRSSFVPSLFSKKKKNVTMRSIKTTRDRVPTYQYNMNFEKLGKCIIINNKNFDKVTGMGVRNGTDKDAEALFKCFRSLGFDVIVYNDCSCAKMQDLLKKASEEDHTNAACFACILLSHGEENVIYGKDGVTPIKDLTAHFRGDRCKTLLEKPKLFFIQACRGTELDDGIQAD
T1 sequence (P55210 207-303 limits assumed): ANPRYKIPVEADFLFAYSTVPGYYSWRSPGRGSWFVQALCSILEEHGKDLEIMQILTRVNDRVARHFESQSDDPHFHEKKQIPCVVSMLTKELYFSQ
Procedure: (§1) Fluorescence enzyme assays detecting the activity of the compounds of Formula 1 utilizing the recombinant ICE and CPP32 enzymes are performed essentially according to Thornberry et al. (Nature, 356:768:774 (1992)) and Nicholson et al. (Nature, 376:37–43 (1995)) respectively, (herein incorporated by reference) in 96 well microtiter plates. The substrate is Acetyl-Tyr-Val-Ala-Asp-amino-4-methylcoumarin (AMC) for the ICE assay and Acetyl-Asp-Glu-Val-Asp-amino-4-methylcoumarin for the CPP32, Mch2, Mch3 and Mch5 assays. Enzyme reactions are run in ICE buffer (25 mM HEPES, 1 mM EDTA, 0.1% CHAPS, 10% sucrose, pH 7.5) containing 2 mM DTT at room temperature in duplicate.
(§2) The enzyme and the compound of Formula I to be assayed are allowed to preincubate in the microtitre plate wells for 30 minutes at room temperature prior to the addition of substrate to initiate the reaction. Fluorescent AMC product formation is monitored for one hour at room temperature by measuring the fluorescence emission at 460 nm using an excitation wavelength of 360 nm. The fluorescence change in duplicate (control) wells are averaged and the mean values are plotted as a function of inhibitor concentration to determine the inhibitor concentration producing 50% inhibition (IC50). The results of this assay are set forth below in Table 1 and in Table 3 (for Table 3, see Examples 11 through 52).
(§3) The reference compound for this assay was Cbz-ValAlaAsp-H and the values are denoted in Table 1 as “Reference”.

mICE = target: T2, mICE (Mus musculus, UniProt P29452); test: Fluorescence enzyme assay, IC50 determination, ICE
T2 sequence (P29452 123-296 limits assumed): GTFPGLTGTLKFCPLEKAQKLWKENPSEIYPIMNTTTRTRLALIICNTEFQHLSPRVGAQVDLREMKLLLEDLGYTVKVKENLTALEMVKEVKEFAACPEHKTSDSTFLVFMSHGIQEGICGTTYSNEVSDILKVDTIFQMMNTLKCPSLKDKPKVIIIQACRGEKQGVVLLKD
T2 sequence (P29452 315-402 limits assumed): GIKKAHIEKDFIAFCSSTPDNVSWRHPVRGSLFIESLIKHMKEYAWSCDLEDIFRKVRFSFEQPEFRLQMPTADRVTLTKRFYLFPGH
Procedure: as §1, §2, §3

MCH-5 = MCH-5 (Homo sapiens, UniProt Q14790); test: Fluorescence enzyme assay, IC50 determination, Mch5
Procedure: as §1, §2, §3

CPP32 = target: T3, CPP32 (Homo sapiens, UniProt P42574); test: Fluorescence enzyme assay, IC50 determination, CPP32
T3 sequence (P42574 29-175 limits assumed): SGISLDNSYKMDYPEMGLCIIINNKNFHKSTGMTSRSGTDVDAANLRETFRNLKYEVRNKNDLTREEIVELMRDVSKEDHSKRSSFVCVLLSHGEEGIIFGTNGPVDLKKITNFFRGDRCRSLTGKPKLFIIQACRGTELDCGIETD
T3 sequence (P42574 176-277 limits assumed): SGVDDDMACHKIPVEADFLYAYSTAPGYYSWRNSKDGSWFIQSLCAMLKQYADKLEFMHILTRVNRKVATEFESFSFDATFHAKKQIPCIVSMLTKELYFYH
Procedure: as §1, §2, §3

MCH-2 = target: T4, MCH-2 (Homo sapiens, UniProt P55212); test: Fluorescence enzyme assay, IC50 determination, Mch2
T4 sequence (P55212 24-179 limits assumed): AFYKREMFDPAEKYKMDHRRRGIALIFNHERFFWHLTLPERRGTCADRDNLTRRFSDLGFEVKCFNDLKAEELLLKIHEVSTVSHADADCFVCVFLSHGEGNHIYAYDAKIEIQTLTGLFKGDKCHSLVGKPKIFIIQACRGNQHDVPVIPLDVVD
T4 sequence (P55212 194-293 limits assumed): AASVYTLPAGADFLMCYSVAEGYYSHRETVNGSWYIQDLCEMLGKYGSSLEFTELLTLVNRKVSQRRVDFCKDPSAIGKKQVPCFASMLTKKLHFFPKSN
Procedure: as §1, §2, §3

[1] = Ac-DEVD-AMC substrate, 30 min preincubation, room temperature, read-out: MCH-3 IC50
[2] = recombinant enzyme, Ac-YVAD-AMC substrate, 30 min preincubation, room temperature, read-out: mICE IC50
[3] = Ac-DEVD-AMC substrate, 30 min preincubation, room temperature, read-out: MCH-5 IC50
[4] = recombinant enzyme, Ac-DEVD-AMC substrate, 30 min preincubation, room temperature, read-out: CPP32 IC50
[5] = Ac-DEVD-AMC substrate, 30 min preincubation, room temperature, read-out: MCH-2 IC50
[6] = Table 3, method of Preparation 3A, read-out: MCH3 I50
[7] = Table 3, method of Preparation 3A, read-out: mICE I50
[8] = Table 3, method of Preparation 3A, read-out: MCH5 I50
[9] = Table 3, method of Preparation 3A, read-out: CPP32 I50
[10] = Table 3, method of Preparation 3A, read-out: MCH2 I50

Sequence of MCH-5 (Q14790 217-374 limits assumed, species assumed): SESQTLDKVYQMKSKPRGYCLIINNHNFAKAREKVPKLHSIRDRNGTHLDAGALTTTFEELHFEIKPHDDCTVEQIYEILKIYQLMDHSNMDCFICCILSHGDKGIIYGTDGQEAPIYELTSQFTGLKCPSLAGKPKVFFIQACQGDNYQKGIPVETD
Sequence of MCH-5 (Q14790 385-479 limits assumed, species assumed): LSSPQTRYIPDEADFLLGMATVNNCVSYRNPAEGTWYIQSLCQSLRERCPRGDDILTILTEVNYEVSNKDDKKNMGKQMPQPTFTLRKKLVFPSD

SMILES | pIC50 (MCH-3; [1]) | pIC50 (mICE; [2]) | pIC50 (MCH-5; [3]) | pIC50 (CPP32; [4]) | pIC50 (MCH-2; [5]) | pIC50 (MCH-3; [6]) | pIC50 (mICE; [7]) | pIC50 (MCH-5; [8]) | pIC50 (CPP32; [9]) | pIC50 (MCH-2; [10])
CC(C)[C@H](NC(=O)COc1cccc2ccccc12)C(=O)N[C@H](C=O)CC(=O)O [Example 2, (3S)-3-[N-((1-Naphthyloxy)Acetyl)Valinyl]Amino-4-Oxobutanoic Acid] | 5.68 | 6.47 | 5.92 | 6.45 | < 5.00 |  |  |  |  | 
CC(C)C[C@H](NC(=O)COc1c(Cl)cc(Cl)c2ccccc12)C(=O)N[C@H](C=O)CC(=O)O [Example 29] |  |  |  |  |  | 5.44 | 6.85 | 5.52 | 6.45 | 4.67
CC(C)[C@H](NC(=O)COc1c(C(=O)O)ccc2ccccc12)C(=O)N[C@H](C=O)CC(=O)O [Example 6, (3S)-3-[N-((2′-Carboxy-1′-Naphthyloxy)Acetyl)Valinyl]Amino-4-Oxobutanoic Acid] | 5.78 | 6.41 | 7.32 | 7.27 | 5.84 |  |  |  |  | 
CC(C)C[C@H](NC(=O)CCC(=O)c1cccc2ccccc12)C(=O)N[C@H](C=O)CC(=O)O [Example 19] |  |  |  |  |  | 4.95 | 6.39 | 4.95 | 6.01 | 4.93
CC(C)C[C@H](NC(=O)COc1ccccc1Cc1ccccc1)C(=O)N[C@H](C=O)CC(=O)O [Example 42] |  |  |  |  |  | 5.47 | 6.28 | 5.22 | 6.31 | 5.00
CC(C)C[C@H](NC(=O)COc1cccc(-c2ccccc2)c1)C(=O)N[C@H](C=O)CC(=O)O [Example 40] |  |  |  |  |  | 5.43 | 5.96 | 5.41 | 6.51 | 4.84
CC(C)[C@H](NC(=O)COc1cccc2c(NS(=O)(=O)C(F)(F)F)cccc12)C(=O)N[C@H](C=O)CC(=O)O [Example 188, (3S)-3-[N-((5′-Trifluoromethylsulfonylamino-1′-Naphthyloxy)Acetyl)Valinyl]Amino-4-Oxobutanoic Acid] | 4.96 | 6.90 | 6.21 | 6.68 | 6.00 |  |  |  |  | 
CC(C)C[C@H](NC(=O)COc1ccc(-c2ccccc2)cc1)C(=O)N[C@H](C=O)CC(=O)O [Example 41] |  |  |  |  |  | 4.92 | 5.72 | 5.12 | 6.12 | 4.69
CC(C)C[C@H](NC(=O)COc1ccc(Oc2ccccc2)cc1)C(=O)N[C@H](C=O)CC(=O)O [Example 44] |  |  |  |  |  | 5.17 | 5.66 | 5.03 | 6.26 | 4.67
CC(C)C[C@H](NC(=O)COc1cccc2cnccc12)C(=O)N[C@H](C=O)CC(=O)O [Example 33] |  |  |  |  |  | 5.46 | 5.29 | 5.44 | 6.39 | 4.37
CC(C)C[C@H](NC(=O)COc1cccc2c1CCCC2)C(=O)N[C@H](C=O)CC(=O)O [Example 51] |  |  |  |  |  | 5.56 | 5.74 | 5.76 | 6.49 | 4.93
CC(C)C[C@H](NC(=O)COc1ccnc2ccccc12)C(=O)N[C@H](C=O)CC(=O)O [Example 31] |  |  |  |  |  | 5.34 | 4.45 | < 4.30 | 6.63 | < 4.30

— patent publication US7157430B2, “(Substituted)acyl dipeptidyl inhibitors of the ICE/CED-3 family of cysteine proteases” (Idun Pharmaceuticals, Inc., priority 1998, dated 2007)
